Results from BindingDB's records for doi:10.1021/jm00396a028 (Merck Sharp & Dohme Research Laboratories, 1988).

Experiment: Displacement of [125I]gastrin from guinea pig gastric glands

| Structure (SMILES) | IC50 |
| --- | --- |
| O=C(NC1N=C(c2ccccc2F)c2ccccc2-n2cnnc21)c1cc2ccccc2[nH]1 (stereo not drawn) [1H-Indole-2-carboxylic acid [6-(2-fluoro-phenyl)-4H-2,3,5,10b-tetraaza-benzo[e]azulen-4-yl]-amide(0.1EtOAc)] | 65 nM |
| CN(C)Cc1nnc2n1-c1ccccc1C(c1ccccc1F)=N[C@@H]2Cc1c[nH]c2ccccc12 [[6-(2-Fluoro-phenyl)-4-(1H-indol-3-ylmethyl)-4H-2,3,5,10b-tetraaza-benzo[e]azulen-1-ylmethyl]-dimethyl-amine(0.22CHCl3)] | 60000 nM |
| O=C(NC1N=C(c2ccccc2F)c2ccccc2-n2cnnc21)c1ccc(Cl)cc1 (stereo not drawn) [4-Chloro-N-[6-(2-fluoro-phenyl)-4H-2,3,5,10b-tetraaza-benzo[e]azulen-4-yl]-benzamide] | 2400 nM |
| Fc1ccccc1C1=N[C@H](Cc2c[nH]c3ccccc23)c2nnc(-c3ccccc3)n2-c2ccccc21 [6-(2-Fluoro-phenyl)-4-(1H-indol-3-ylmethyl)-1-phenyl-4H-2,3,5,10b-tetraaza-benzo[e]azulene(0.55CHCl3)] | > 100000 nM |
| Cc1nnc2n1-c1ccccc1C(c1ccccc1)=NC2NC(=O)Nc1ccc(Cl)cc1 (stereo not drawn) [1-(4-Chloro-phenyl)-3-(1-methyl-6-phenyl-4H-2,3,5,10b-tetraaza-benzo[e]azulen-4-yl)-urea] | 380 nM |
| Cc1nnc2n1-c1ccccc1C(c1ccccc1F)=NC2NC(=O)c1cc2ccccc2[nH]1 (stereo not drawn) [1H-Indole-2-carboxylic acid [6-(2-fluoro-phenyl)-1-methyl-4H-2,3,5,10b-tetraaza-benzo[e]azulen-4-yl]-amide(0.2EtOAc)] | 7 nM |
| Cc1nnc2n1-c1ccc(Cl)cc1C(c1ccccc1Cl)=NC2 [Halcion] | > 100000 nM |
| Fc1ccccc1C1=N[C@H](Cc2c[nH]c3ccccc23)c2nncn2-c2ccccc21 [6-(2-Fluoro-phenyl)-4-(1H-indol-3-ylmethyl)-4H-2,3,5,10b-tetraaza-benzo[e]azulene(0.5CHCl3)] | 25000 nM |
| Fc1ccccc1C1=N[C@H](Cc2c[nH]c3ccccc23)c2nnc(C(Cl)(Cl)Cl)n2-c2ccccc21 [6-(2-Fluoro-phenyl)-4-(1H-indol-3-ylmethyl)-1-trichloromethyl-4H-2,3,5,10b-tetraaza-benzo[e]azulene(0.5CHCl3)] | > 100000 nM |
| Cc1nnc2n1-c1ccc(Cl)cc1C(c1ccccc1)=NC2 | > 100000 nM |
| O=C(NC1N=C(c2ccccc2F)c2ccccc2-n2cnnc21)OCc1ccccc1 (stereo not drawn) [[6-(2-Fluoro-phenyl)-4H-2,3,5,10b-tetraaza-benzo[e]azulen-4-yl]-carbamic acid benzyl ester] | 3000 nM |
| O=C(Nc1ccc(Cl)cc1)NC1N=C(c2ccccc2)c2ccccc2-n2cnnc21 (stereo not drawn) [1-(4-Chloro-phenyl)-3-(6-phenyl-4H-2,3,5,10b-tetraaza-benzo[e]azulen-4-yl)-urea] | 380 nM |
| O=C(NC1N=C(c2ccccc2)c2ccccc2-n2cnnc21)OCc1ccccc1 (stereo not drawn) [(6-Phenyl-4H-2,3,5,10b-tetraaza-benzo[e]azulen-4-yl)-carbamic acid benzyl ester(0.25EtOAc)] | 4800 nM |
